Experimental data as given in patent US11801242B2, “Compositions and methods for adjuvant cancer therapeutics” (DUKE UNIVERSITY, priority 2018, dated 2023).

Assays:
[1] = system: REV1 CTD-REV7 interaction; assay: ELISA assay probing the REV1 CTD-REV7 interaction; type: binding, mouse; conditions: ratio of test compound IC50 to RE01 IC50
Procedure: The ELISA assay for probing the REV1 CTD-REV7 interaction was carried out by immobilizing 50 nM His8-tagged REV7/3 in 200 μL phosphate-buffered saline (PBS, Gibco) containing 0.2% BSA in a Ni-NTA coated 96-well plate (HisSorb, Qiagen) for 30 minutes. Unbound His8-tagged REV7/3 was removed by washing the wells four times with PBS containing 0.05% Tween-20. […] After incubation for 30 minutes, the wells were washed four times with PBS containing 0.05% Tween-20 to remove the unbound FLAG-tagged POL κ RIR-REV1 CTD. A solution of the anti-FLAG horseradish peroxidase (HRP)-conjugated antibody (Sigma-Aldrich) in PBS containing 0.2% BSA was then added to the wells. After incubating for 1 hour, the antibody was washed off four times with PBS containing 0.05% Tween-20. The 3,3′,5,5′-tetramethylbenzedine (TMB) substrate (SureBlue TMB, Seracare) was added to the wells. After incubation of 20-30 minutes, the reaction was quenched with 1 M HCl. A SpectraMax plate reader (Molecular Devices) was used to measure absorbance at 450 nm.

[2] = molecular target: T1, chimeric REV1 CTD protein (Mus musculus, UniProt Q920Q2); assay: Isothermal titration calorimetry; type: binding; conditions: 25° C.
T1 construct: the mouse REV1 CTD (F1150-T1249); His10-GB1 (TEV site) (N, cleaved yes); made in house; host or cells: E. coli BL21 Star (DE3)
T1 sequence (Q920Q2 1150-1249): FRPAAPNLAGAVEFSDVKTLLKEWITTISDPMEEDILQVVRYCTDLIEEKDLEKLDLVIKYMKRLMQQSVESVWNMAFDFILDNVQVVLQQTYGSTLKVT
Procedure: Isothermal titration calorimetry measurements were carried out using a MicroCal VP-ITC instrument at 25° C., with the chimeric REV1 CTD protein (300 μM) in the syringe and compound (15 μM) in the cell. Compounds were initially dissolved in 50% MPD. Protein and compound samples were diluted in a buffer containing 50 mM HEPES pH 7.5, 50 mM KCl, 2 mM TCEP, 2% DMSO and 0.1% MPD. Microcal Origin 7 software was used to analyze the data.

A375 cells = assay: qRT-PCR of p21 mRNA; type: cell-based, human; conditions: cisplatin 1 μM alone
Procedure: Total RNA was isolated by using the RNeasy Mini kit (Qiagen) from cells treated with RE01 (1.5 μM), cisplatin (1 μM) and a combination of both RE01 (1.5 μM) and cisplatin (1 μM). 5 ng of RNA from each sample was mixed with 10 μl of Applied Biosystems™ PowerUp™ SYBR™ Green Master Mix (ThermoFisher), 1 μl of MultiScribe™ Reverse Transcriptase (ThermoFisher), 0.1 μl of RNaseOUT™ Recombinant Ribonuclease Inhibitor and 5.9 μl of RNase-free water, and run in a one-step qRT-PCR reaction. Each reaction was run in triplicate. Primers used were: p21 F 5′-[…]-3′ (SEQ ID NO: 9), p21 R 5-CGGCGTTTGGAGTGG TAGAAA-3′ (SEQ ID NO: 10); GAPDH F 5′-[…]-3′ (SEQ ID NO: 11), GAPDH R 5′-[…]-3′ (SEQ ID NO: 12).

| Structure (SMILES) | Relative IC50 Ratio [1] | also measured |
| --- | --- | --- |
| CC(C)CC(=O)c1c(Nc2ccc(Cl)cc2Cl)[nH]c2c(C(=O)O)ccc(Cl)c2c1=O [RE08, 5-chloro-2-((2,4-dichlorophenyl)amino)-3-(3-methylbutanoyl)-4-oxo-1,4-dihydroquinoline-8-carboxylic acid] | B (B represents a ratio of test compound IC50 so to RE1 IC50 between 0.8 and 1.5) |  |
| CC(C)CC(=O)c1c(N2CCOCC2)[nH]c2c(Cl)ccc([N+](=O)[O-])c2c1=O [RE07, 8-chloro-3-(3-methylbutanoyl)-2-morpholino-5-nitroquinolin-4(1H)-one] |  | REV1 CTD binding [2]: abolished the REV1 CTD binding |
| CC(C)CC(=O)c1c(Nc2ccc(Cl)cc2Cl)[nH]c2ccccc2c1=O [RE28, 2-((2,4-dichlorophenyl)amino)-3-(3-methylbutanoyl)quinolin-4(1H)-one] | A (A represents a ratio of test compound IC50 to RE01 IC50 of less than 0.8) |  |
| N.N.[Cl][Pt][Cl] [cisplatin, cis-diammineplatinum(II) dichloride, reference compound] |  | levels of the p21 biomarker (A375 cells): elevated levels |
| COc1ccc(Cl)c2[nH]c(Nc3ccc(Cl)cc3Cl)c(C(=O)CC(C)C)c(=O)c12 [RE29, 8-chloro-2-((2,4-dichlorophenyl)amino)-5-methoxy-3-(3-methylbutanoyl)quinolin-4(1H)-one] | A (A represents a ratio of test compound IC50 to RE01 IC50 of less than 0.8) |  |
| CC(C)CC(=O)c1c(Nc2ccccc2Cl)[nH]c2c(Cl)ccc([N+](=O)[O-])c2c1=O [RE23, 8-chloro-2-((2-chlorophenyl)amino)-3-(3-methylbutanoyl)-5-nitroquinolin-4(1H)-one] | B (B represents a ratio of test compound IC50 so to RE1 IC50 between 0.8 and 1.5) |  |
| Cc1ccc([N+](=O)[O-])c2c(=O)c(C(=O)CC(C)C)c(Nc3ccc(Cl)cc3Cl)[nH]c12 [RE36, 2-((2,4-dichlorophenyl)amino)-8-methyl-3-(3-methylbutanoyl)-5-nitroquinolin-4(1H)-one] | C (C represents a ratio of test compound IC50 to RE01 IC50 between 1.5-10) |  |
